Results taken from patent publication US11285135B2 (AMGEN INC., priority 2016, dated 2022).

target: GDP-bound protein (aa 1-169), containing both G12C and C118A amino acid substitutions (Homo sapiens, UniProt P01116, C118A/G12C); assay: Coupled Nucleotide Exchange Assay (SOS-mediated nucleotide exchange, AlphaScreen); format: biochemical; conditions: 2 hours compound pre-incubation
Procedure: Coupled Nucleotide Exchange Assay: Purified GDP-bound […] protein (aa 1-169), containing both G12C and C118A amino acid substitutions and an N-terminal His-tag, was pre-incubated with a compound dose-response titration for 2 hours in assay buffer (25 mM HEPES pH 7.4, 10 mM MgCl2, and 0.01% Triton X-100). Following compound pre-incubation, purified SOS protein (aa 564-1049) and GTP (Roche 10106399001) were added to the assay wells and incubated for an additional hour. […] The assay plates were then read on a PerkinElmer EnVision Multilabel Reader, using AlphaScreen® technology, and data were analyzed using a 4-parameter logistic model to calculate IC50 values.

Chain of GDP-bound protein (aa 1-169), containing both G12C and C118A amino acid substitutions (P01116 1-169 isoform P01116-2 G12C/C118A): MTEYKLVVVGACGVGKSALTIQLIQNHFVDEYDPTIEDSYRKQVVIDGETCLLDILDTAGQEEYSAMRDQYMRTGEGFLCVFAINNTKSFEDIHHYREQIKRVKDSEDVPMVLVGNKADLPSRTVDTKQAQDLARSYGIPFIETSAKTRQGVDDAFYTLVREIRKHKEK

With `C=CC(=O)NC1CN(c2snc3c(F)c(-c4cc(OC)cc5ccccc45)c(Cl)cc23)C1` [Example 4-5, N-(1-(5-chloro-7-fluoro-6-(3-methoxy-1-naphthalenyl)-2,1-benzothiazol-3-yl)-3-azetidinyl)-2-propenamide] the “Coupled exchange IC50” value was over 250 µM.
For `C=CC(=O)N[C@@H]1CCN(c2snc3c(F)c(-c4cc(O)cc5ccccc45)c(Cl)cc23)C1` [Example 1-22, N-((3R)-1-(5-chloro-7-fluoro-6-(3-hydroxy-1-naphthalenyl)-2,1-benzothiazol-3-yl)-3-pyrrolidinyl)-2-propenamide], the “Coupled exchange IC50” value was over 250 µM.
For `C=CC(=O)N1CC2(C1)CN(c1snc3c(F)c(Br)c(Cl)cc13)C2` [Example 4-2, 1-(6-(6-bromo-5-chloro-7-fluoro-2,1-benzothiazol-3-yl)-2,6-diazaspiro[3.3]hept-2-yl)-2-propen-1-one], the “Coupled exchange IC50” value was over 250 µM.
`C=CC(=O)N1CCN(c2snc3c(F)c(-c4cccc5ccc(=O)[nH]c45)c(Cl)cc23)CC1` [Example 3-2, 8-(5-chloro-7-fluoro-3-(4-(2-propenoyl)-1-piperazinyl)-2,1-benzothiazol-6-yl)-2(1H)-quinolinone] was tested, and the “Coupled exchange IC50” value was over 250 µM.
`C=CC(=O)N[C@@H]1CCCN(c2snc3c(F)c(-c4cc(O)cc5ccccc45)c(Cl)cc23)C1` [Example 1-23, N-((3R)-1-(5-chloro-7-fluoro-6-(3-hydroxy-1-naphthalenyl)-2,1-benzothiazol-3-yl)-3-piperidinyl)-2-propenamide] was tested, and the “Coupled exchange IC50” value was over 250 µM.
In the case of `C=CC(=O)N1CCN(c2snc3c(F)c(-c4cc(N)cc(C#N)c4)c(Cl)cc23)CC1` [Example 3-25, 3-amino-5-(5-chloro-7-fluoro-3-(4-(2-propenoyl)-1-piperazmyl)-2,1-benzothiazol-6-yl)benzonitrile], the “Coupled exchange IC50” value was over 250 µM.

Point of comparison: `C=CC(=O)N1CCN(c2nnc(Cl)c3cc(-c4c(O)cccc4F)c(Cl)cc23)CC1` [Example 10-13, 1-(4-(4,7-dichloro-6-(2-fluoro-6-hydroxyphenyl)-1-phthalazinyl)-1-piperazinyl)-2-propen-1-one], “Coupled exchange IC50” value 15.1 µM. Against it:
- COc1cc(-c2c(Cl)cc3c(N4CCN(C(=O)/C=C/CN(C)C)CC4)snc3c2F)c2ccccc2c1 [Example 17-1, (2E)-1-(4-(5-Chloro-7-fluoro-6-(3-methoxy-1-naphthalenyl)-2,1-benzothiazol-3-yl)-1-piperazinyl)-4-(dimethylamino)-2-buten-1-one] — within 1.5-fold, 20.6 µM
- C=CC(=O)N1CCN(c2snc3c(F)c(-c4cc(O)cc5ccccc45)c(Cl)cc23)CC1C(N)=O (racemic) [Example 1-12, 4-(5-chloro-7-fluoro-6-(3-hydroxy-1-naphthalenyl)-2,1-benzothiazol-3-yl)-1-(2-propenoyl)-2-piperazinecarboxamide] — within 1.5-fold, 11.8 µM
- C=CC(=O)N1CCN(c2nnc(C3CCCC3)c3cc(-c4c(O)cccc4F)c(Cl)cc23)CC1 [Example 14, 1-(4-(7-Chloro-4-cyclopentyl-6-(2-fluoro-6-hydroxyphenyl)-1-phthalazinyl)-1-piperazinyl)-2-propen-1-one] — 5.6-fold lower, 2.69 µM
- C=C(CCO)C(=O)N1CCN(c2snc3c(F)c(-c4cc(O)cc5ccccc45)c(Cl)cc23)CC1 [Example 20, 1-(4-(5-chloro-7-fluoro-6-(3-hydroxy-1-naphthalenyl)-2,1-benzothiazol-3-yl)-1-piperazinyl)-4-hydroxy-2-methylidene-1-butanone] — 5.2-fold higher, 78.8 µM
- C=CC(=O)N1CCN(c2snc3c(F)c(-c4ncccc4Cl)c(Cl)cc23)CC1 [Example 6-2, 1-(4-(5-chloro-6-(3-chloro-2-pyridinyl)-7-fluoro-2,1-benzothiazol-3-yl)-1-piperazinyl)-2-propen-1-one] — 2.8-fold lower, 5.31 µM
- C=CC(=O)N1CCN(c2snc3c(F)c(-c4ccc(F)cc4F)c(Cl)cc23)CC1 [Example 3-7, 1-(4-(5-chloro-6-(2,4-difluorophenyl)-7-fluoro-2,1-benzothiazol-3-yl)-1-piperazinyl)-2-propen-1-one] — 2.2-fold lower, 6.98 µM
- C=CC(=O)N1CCN(c2snc3c(F)c(-c4cnccc4C(C)C)c(Cl)cc23)CC1 [Example 3-21, 1-(4-(5-chloro-7-fluoro-6-(4-(2-propanyl)-3-pyridinyl)-2,1-benzothiazol-3-yl)-1-piperazinyl)-2-propen-1-one] — 2.1-fold higher, 32.0 µM
- C=CC(=O)N1CCN(c2snc3c(F)c(-c4cc(NC(C)=O)ccc4C)c(Cl)cc23)CC1 [Example 3-13, N-(3-(5-chloro-7-fluoro-3-(4-(2-propenoyl)-1-piperazinyl)-2,1-benzothiazol-6-yl)-4-methylphenyl)acetamide] — 2.3-fold lower, 6.49 µM
- C=CC(=O)N1CCN(c2nnc(OC)c3cc(Cl)c(-c4c(O)cccc4F)cc23)CC1 (single isomer, unassigned) [Example 33, 2-(4-(4-acryloyl-1-piperazinyl)-7-chloro-1-methoxy-6-phthalazinyl)-3-fluorophenol] — 6.8-fold higher, 103 µM
- C=CC(=O)N1CCN(c2snc3c(F)c(-c4cc(O)c(Cl)cc4Cl)c(Cl)cc23)CC1 [Example 3-17, 1-(4-(5-chloro-6-(2,4-dichloro-5-hydroxyphenyl)-7-fluoro-2,1-benzothiazol-3-yl)-1-piperazinyl)-2-propen-1-one] — 2.8-fold lower, 5.48 µM
- C=CC(=O)N1CCN(c2nnc(C(C)c3ccccc3)c3cc(-c4c(O)cccc4F)c(Cl)cc23)CC1 (racemic) [Example 28, 1-(4-(7-chloro-6-(2-fluoro-6-hydroxyphenyl)-4-((1R)-1-phenylethyl)-1-phthalazinyl)-1-piperazinyl)-2-propen-1-one and 1-(4-(7-chloro-6-(2-fluoro-6-hydroxyphenyl)-4-((1S)-1-phenylethyl)-1-phthalazinyl)-1-piperazinyl)-2-propen-1-one] — 1.8-fold lower, 8.17 µM
- C=CC(=O)N1CCC[C@@H](Nc2snc3c(F)c(Br)c(Cl)cc23)C1 [Example 4-8, 1-((3R)-3-((6-bromo-5-chloro-7-fluoro-2,1-benzothiazol-3-yl)amino)-1-piperidinyl)-2-propen-1-one] — 12-fold higher, 177 µM
- C=CC(=O)N1CCN(c2nnc(OC)c3cc(-c4c(O)cccc4F)c(Cl)cc23)CC1 (single isomer, unassigned) [Example 32, 2-(1-(4-Acryloyl-1-piperazinyl)-7-chloro-4-methoxy-6-phthalazinyl)-3-fluorophenol] — 1.9-fold higher, 28.6 µM
- C=CC(=O)N1CCN(c2snc3nc(-c4c(F)cccc4OC)c(Cl)cc23)C(C)C1 (racemic) [Example 2-2, 1-(4-(5-chloro-6-(2-fluoro-6-methoxyphenyl)[1,2]thiazolo[3,4-b]pyridin-3-yl)-3-methyl-1-piperazinyl)-2-propen-1-one] — within 1.5-fold, 12.7 µM
- C=CC(=O)N[C@@H]1CN(c2snc3c(F)c(-c4cc(O)cc5ccccc45)c(Cl)cc23)[C@@H]1C (racemic) [Example 1-9, N-(1-(5-chloro-7-fluoro-6-(3-hydroxy-1-naphthalenyl)-2,1-benzothiazol-3-yl)-2-methyl-3-azetidinyl)-2-propenamide] — 2.6-fold lower, 5.92 µM
